Results taken from patent publication US11299512B2 (priority 2016, dated 2022).
pEC50: −log10 of the molar value. Like-named read-outs stand apart in the source and are kept apart here.

System: THP1 luciferase reporter cells
Assay: cells
Type: cell-based
[1] = 16 hours, read-out: THP1-ISG-Luc with PFO, EC50
[2] = 16 hours, read-out: THP-ISG-Luc without PFO, EC50
[3] = Homo sapiens, THP-1, 16 h, read-out: THP1-ISG-Luc with PFO, EC50
[4] = Homo sapiens, THP-1, 16 h, read-out: THP-ISG-Luc without PFO, EC50

Molecule | pEC50 [1] | pEC50 [2] | pEC50 [3] | pEC50 [4]
Nc1nc2c(ncn2[C@@H]2O[C@@H]3COP(=O)(S)OC4C(O)[C@H](n5ccc6c(N)ncnc65)O[C@@H]4COP(=O)(S)OC2C3O)c(=O)[nH]1 (single isomer, unassigned) [Example E18] | > 7.00 | > 4.52 | – | –
Nc1nc2c(ncn2[C@@H]2O[C@@H]3COP(=O)(O)OC4C(O)[C@H](n5cnc6c(N)ncnc65)O[C@@H]4COP(=O)(O)OC2C3O)c(=O)[nH]1 (stereo in doubt) [Example E1] | – | – | > 7.00 | > 4.52
Nc1nc2c(ccn2[C@@H]2O[C@@H]3COP(=O)(O)OC4C(O)[C@H](n5ccc6c(N)ncnc65)O[C@@H]4COP(=O)(O)OC2C3O)c(=O)[nH]1 (stereo in doubt) [EA1] | – | – | 6.00 to 7.00 | < 4.00
COC1C2OP(=O)(O)OC[C@H]3O[C@@H](n4cnc5c(N)ncnc54)C(O)C3OP(=O)(O)OC[C@H]1O[C@H]2n1cnc2c(=O)[nH]c(N)nc21 (stereo in doubt) [Example E3] | – | – | > 7.00 | > 4.52
Nc1nc2c(ccn2[C@@H]2O[C@@H]3COP(=O)(S)OC4C(O)[C@H](n5ccc6c(N)ncnc65)O[C@@H]4COP(=O)(S)OC2C3O)c(=O)[nH]1 (single isomer, unassigned) [Example E21] | 6.00 to 7.00 | > 4.52 | – | –
Nc1nc2c(ncn2[C@@H]2O[C@@H]3COP(=O)(O)OC4C[C@H](n5ccc6ccccc65)O[C@@H]4COP(=O)(S)OC2C3O)c(=O)[nH]1 (single isomer, unassigned) [EC17] | – | – | < 6.00 | < 4.00
Nc1nc2c(ncn2[C@@H]2O[C@@H]3COP(=O)(O)OC4C[C@H](n5ccc6ccccc65)O[C@@H]4COP(=O)(S)OC2C3O)c(=O)[nH]1 (single isomer, unassigned) [EC18] | < 6.00 | < 4.00 | – | –
Nc1ncnc2c1ccn2[C@@H]1O[C@@H]2COP(=O)(S)OC3C(O)[C@@H](COP(=O)(O)OC2C1O)O[C@H]3n1ccc2c(N)ncnc21 (stereo partly drawn) [EC6] | – | – | < 6.00 | < 4.00
Nc1nc2c(ncn2[C@@H]2O[C@@H]3COP(=O)(S)OC4C(O)[C@H](n5ncc6c(N)ncnc65)O[C@@H]4COP(=O)(S)OC2C3O)c(=O)[nH]1 (single isomer, unassigned) [EA4] | 6.00 to 7.00 | > 4.52 | – | –
Nc1nc2c(ncn2[C@@H]2O[C@@H]3COP(=O)(S)OC4C(O)[C@H](n5cnc6c(N)ncnc65)O[C@@H]4COP(=O)(O)OC2C3O)c(=O)[nH]1 (single isomer, unassigned) [Example E6] | – | – | > 7.00 | > 4.52
Nc1nc2c(ncn2[C@@H]2O[C@@H]3COP(=O)(S)OC4C(O)[C@H](n5ccc6c(N)ncnc65)O[C@@H]4COP(=O)(S)OC2C3O)c(=O)[nH]1 (single isomer, unassigned) [Example E17] | < 6.00 | < 4.00 | – | –
C#CCOC1[C@H]2OP(=O)(O)OC[C@H]3O[C@@H](n4cnc5c(=O)[nH]c(N)nc54)[C@@H](OP(=O)(O)OC[C@H]2O[C@H]1n1cnc2c(N)ncnc21)C3O (stereo partly drawn) [EA3] | – | – | < 6.00 | < 4.00
Nc1nc2c(ncn2[C@@H]2O[C@@H]3COP(=O)(O)OC4C(O)[C@H](n5cnc6c(N)ncnc65)O[C@@H]4COP(=O)(S)OC2C3O)c(=O)[nH]1 (single isomer, unassigned) [Example E9] | > 7.00 | > 4.52 | – | –
Nc1nc2c(ncn2[C@@H]2O[C@@H]3COP(=O)(S)OC4C(O)[C@H](n5cnc6c(N)ncnc65)O[C@@H]4COP(=O)(O)OC2C3O)c(=O)[nH]1 (single isomer, unassigned) [Example E7] | > 7.00 | > 4.52 | – | –
Nc1nc2c(ccn2[C@@H]2O[C@@H]3COP(=O)(S)OC4C(O)[C@@H](COP(=O)(O)OC3C2O)O[C@H]4n2ccc3c(=O)[nH]c(N)nc32)c(=O)[nH]1 (single isomer, unassigned) [EC5] | 6.00 to 7.00 | 4.00 to 4.52 | – | –
Nc1nc2c(ncn2[C@@H]2O[C@@H]3COP(=O)(S)OC4C(O)[C@H](n5ccc6c(N)ncnc65)O[C@@H]4COP(=O)(S)OC2C3O)c(=O)[nH]1 (single isomer, unassigned) [Example E16] | > 7.00 | > 4.52 | – | –
Nc1nc2c(ccn2[C@@H]2O[C@@H]3COP(=O)(O)OC4C(O)[C@H](n5ccc6c(N)ncnc65)O[C@@H]4COP(=O)(S)OC2C3O)c(=O)[nH]1 (single isomer, unassigned) [EB2] | > 7.00 | > 4.52 | – | –
Nc1nc2c(ncn2[C@@H]2O[C@@H]3COP(=O)(O)OC4C[C@H](n5ccc6ccccc65)O[C@@H]4COP(=O)(O)OC2C3OCC(F)(F)F)c(=O)[nH]1 (stereo in doubt) [EC16] | – | – | < 6.00 | < 4.00
Nc1nc2c(ccn2[C@@H]2O[C@@H]3COP(=O)(S)OC4C(O)[C@@H](COP(=O)(O)OC3C2O)O[C@H]4n2ccc3c(N)ncnc32)c(=O)[nH]1 (single isomer, unassigned) [EC8] | – | – | < 6.00 | < 4.00
BP1(=O)OC[C@H]2O[C@@H](n3cnc4c(N)ncnc43)C(O)C2OP(=O)(O)OC[C@H]2O[C@@H](n3cnc4c(=O)[nH]c(N)nc43)C(O1)C2O (single isomer, unassigned) [EA9] | – | – | > 7.00 | > 4.52
Nc1nc2c(ccn2[C@@H]2O[C@@H]3COP(=O)(O)OC4C(O)[C@@H](COP(=O)(S)OC2C3O)O[C@H]4n2cnc3c(N)ncnc32)c(=O)[nH]1 (single isomer, unassigned) [EC14] | < 6.00 | < 4.00 | – | –
Nc1nc2c(ncn2[C@@H]2O[C@@H]3COP(=O)(O)OC4C(O)[C@@H](COP(=O)(O)OC2C3OCC(F)(F)F)O[C@H]4n2cnc3c(N)ncnc32)c(=O)[nH]1 (stereo in doubt) [EC13] | – | – | 6.00 to 7.00 | > 4.52
Nc1nc2c(ncn2[C@@H]2O[C@@H]3COP(=O)(S)O[C@@H]4C(O)[C@H](n5ccc6c(N)ncnc65)O[C@@H]4COP(=O)(S)O[C@H]2C3O)c(=O)[nH]1 (single isomer, unassigned) [Example E15] | – | – | < 6.00 | < 4.00
Nc1nc2c(ncn2[C@@H]2O[C@@H]3COP(=O)(O)OC4C(O)[C@H](n5ccc6c(N)ncnc65)O[C@@H]4COP(=O)(S)OC2C3OCC(F)(F)F)c(=O)[nH]1 (single isomer, unassigned) [EC2] | – | – | 6.00 to 7.00 | 4.00 to 4.52
Nc1nc2c(ccn2[C@@H]2O[C@@H]3COP(=O)(O)OC4C(O)[C@H](n5cnc6c(NCCO)ncnc65)O[C@@H]4COP(=O)(S)OC2C3O)c(=O)[nH]1 (stereo in doubt) [EB5] | – | – | 6.00 to 7.00 | < 4.00
EC23 | < 6.00 | < 4.00 | – | –
Nc1nc2c(ccn2[C@@H]2O[C@@H]3COP(=O)(S)OC4C(O)[C@H](n5ccc6c(N)ncnc65)O[C@@H]4COP(=O)(S)OC2C3O)c(=O)[nH]1 (single isomer, unassigned) [Example E20] | – | – | 6.00 to 7.00 | > 4.52
Nc1nc2c(ncn2[C@@H]2O[C@@H]3COP(=O)(O)OC4C(O)[C@H](n5cnc6c(N)ncnc65)O[C@@H]4COP(=O)(O)OC2C3OCC(F)(F)F)c(=O)[nH]1 (stereo in doubt) [EA2] | – | – | > 7.00 | > 4.52
Nc1nc2c(ccn2[C@@H]2O[C@@H]3COP(=O)(S)OC4C(O)[C@H](n5ccc6c(N)ncnc65)O[C@@H]4COP(=O)(S)OC2C3O)c(=O)[nH]1 (single isomer, unassigned) [Example E22] | 6.00 to 7.00 | > 4.52 | – | –
Nc1nc2c(ccn2[C@@H]2O[C@@H]3COP(=O)(S)OC4[C@@H](COP(=O)(S)O[C@H]2C3O)O[C@@H](n2ccc3c(N)ncnc32)[C@H]4O)c(=O)[nH]1 (stereo partly drawn) [Example E23] | – | – | > 7.00 | > 4.52
